Experimental data: PubChem BioAssay (NCI)
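Tested at 5 concentrations; 48 h exposure; 96-well plates; endpoints linearly interpolated, else capped at highest concentration. TGI marks complete inhibition of growth.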

How the values were obtained:
Assay in all cases: DTP human tumour cell line panel, 48 h
786-0 renal = system: 786-0 renal
A498 renal = system: A498 renal
A549 NSCLC = system: A549 NSCLC
ACHN renal = system: ACHN renal
BT-549 breast = system: BT-549 breast
CAKI-1 renal = system: CAKI-1 renal
CCRF-CEM leukemia = system: CCRF-CEM leukemia
COLO 205 colon = system: COLO 205 colon
EKVX NSCLC = system: EKVX NSCLC
HCC-2998 colon = system: HCC-2998 colon
HCT-116 colon = system: HCT-116 colon
HCT-15 colon = system: HCT-15 colon
HL-60(TB) leukemia = system: HL-60(TB) leukemia
HOP-62 NSCLC = system: HOP-62 NSCLC
HOP-92 NSCLC = system: HOP-92 NSCLC
HS 578T breast = system: HS 578T breast
HT29 colon = system: HT29 colon
IGROV1 ovarian = system: IGROV1 ovarian
K-562 leukemia = system: K-562 leukemia
KM12 colon = system: KM12 colon
LOX IMVI melanoma = system: LOX IMVI melanoma
M14 melanoma = system: M14 melanoma
MALME-3M melanoma = system: MALME-3M melanoma
MCF7 breast = system: MCF7 breast
MDA-MB-231 breast = system: MDA-MB-231 breast
MDA-MB-435 = system: MDA-MB-435
MDA-N = system: MDA-N
MOLT-4 leukemia = system: MOLT-4 leukemia
NCI-H226 lung = system: NCI-H226 lung
NCI-H23 lung = system: NCI-H23 lung
NCI-H460 lung = system: NCI-H460 lung
NCI-H522 lung = system: NCI-H522 lung
NCI/ADR-RES ovarian = system: NCI/ADR-RES ovarian
OVCAR-3 ovarian = system: OVCAR-3 ovarian
OVCAR-4 ovarian = system: OVCAR-4 ovarian
OVCAR-5 ovarian = system: OVCAR-5 ovarian
OVCAR-8 ovarian = system: OVCAR-8 ovarian
PC-3 prostate = system: PC-3 prostate
RPMI-8226 leukemia = system: RPMI-8226 leukemia
RXF 393 renal = system: RXF 393 renal
SF-268 CNS = system: SF-268 CNS
SF-295 CNS = system: SF-295 CNS
SK-MEL-2 melanoma = system: SK-MEL-2 melanoma
SK-MEL-28 melanoma = system: SK-MEL-28 melanoma
SK-MEL-5 melanoma = system: SK-MEL-5 melanoma
SK-OV-3 ovarian = system: SK-OV-3 ovarian
SN12C renal = system: SN12C renal
SNB-19 CNS = system: SNB-19 CNS
SNB-75 CNS = system: SNB-75 CNS
SR leukemia = system: SR leukemia
SW-620 colon = system: SW-620 colon
TK-10 renal = system: TK-10 renal
U251 CNS = system: U251 CNS
UACC-257 melanoma = system: UACC-257 melanoma
UO-31 renal = system: UO-31 renal
DU-145 prostate = system: DU-145 prostate
SF-539 CNS = system: SF-539 CNS
T-47D breast = system: T-47D breast
UACC-62 melanoma = system: UACC-62 melanoma

O=c1cnc2cc3ccccc3cc2[nH]1
TGI (786-0 renal): > 100 µM | TGI (A498 renal): > 100 µM | TGI (A549 NSCLC): > 100 µM | TGI (ACHN renal): > 100 µM | TGI (BT-549 breast): > 100 µM | TGI (CAKI-1 renal): > 100 µM | TGI (CCRF-CEM leukemia): > 100 µM | TGI (COLO 205 colon): > 100 µM | TGI (EKVX NSCLC): > 100 µM | TGI (HCC-2998 colon): > 100 µM | TGI (HCT-116 colon): > 100 µM | TGI (HCT-15 colon): > 100 µM | TGI (HL-60(TB) leukemia): > 100 µM | TGI (HOP-62 NSCLC): > 100 µM | TGI (HOP-92 NSCLC): > 100 µM | TGI (HS 578T breast): > 100 µM | TGI (HT29 colon): > 100 µM | TGI (IGROV1 ovarian): > 100 µM | TGI (K-562 leukemia): > 100 µM | TGI (KM12 colon): > 100 µM | TGI (LOX IMVI melanoma): > 100 µM | TGI (M14 melanoma): > 100 µM | TGI (MALME-3M melanoma): > 100 µM | TGI (MCF7 breast): > 100 µM | TGI (MDA-MB-231 breast): > 100 µM | TGI (MDA-MB-435): > 100 µM | TGI (MDA-N): > 100 µM | TGI (MOLT-4 leukemia): > 100 µM | TGI (NCI-H226 lung): > 100 µM | TGI (NCI-H23 lung): > 100 µM | TGI (NCI-H460 lung): > 100 µM | TGI (NCI-H522 lung): > 100 µM | TGI (NCI/ADR-RES ovarian): > 100 µM | TGI (OVCAR-3 ovarian): > 100 µM | TGI (OVCAR-4 ovarian): > 100 µM | TGI (OVCAR-5 ovarian): > 100 µM | TGI (OVCAR-8 ovarian): > 100 µM | TGI (PC-3 prostate): > 100 µM | TGI (RPMI-8226 leukemia): > 100 µM | TGI (RXF 393 renal): > 100 µM | TGI (SF-268 CNS): > 100 µM | TGI (SF-295 CNS): > 100 µM | TGI (SK-MEL-2 melanoma): > 100 µM | TGI (SK-MEL-28 melanoma): > 100 µM | TGI (SK-MEL-5 melanoma): > 100 µM | TGI (SK-OV-3 ovarian): > 100 µM | TGI (SN12C renal): > 100 µM | TGI (SNB-19 CNS): > 100 µM | TGI (SNB-75 CNS): > 100 µM | TGI (SR leukemia): > 100 µM | TGI (SW-620 colon): > 100 µM | TGI (TK-10 renal): > 100 µM | TGI (U251 CNS): > 100 µM | TGI (UACC-257 melanoma): > 100 µM | TGI (UO-31 renal): > 100 µM

COc1ccc(Nc2nc(NNC(=O)Cc3ccccc3)nc(NNC(=O)c3ccncc3)n2)cc1
TGI (786-0 renal): > 10 µM | TGI (A498 renal): > 10 µM | TGI (A549 NSCLC): > 10 µM | TGI (ACHN renal): > 10 µM | TGI (BT-549 breast): > 10 µM | TGI (CAKI-1 renal): > 10 µM | TGI (CCRF-CEM leukemia): > 10 µM | TGI (COLO 205 colon): > 10 µM | TGI (DU-145 prostate): > 10 µM | TGI (EKVX NSCLC): > 10 µM | TGI (HCC-2998 colon): > 10 µM | TGI (HCT-116 colon): > 10 µM | TGI (HCT-15 colon): > 10 µM | TGI (HOP-62 NSCLC): > 10 µM | TGI (HOP-92 NSCLC): > 10 µM | TGI (HT29 colon): > 10 µM | TGI (IGROV1 ovarian): > 10 µM | TGI (K-562 leukemia): > 10 µM | TGI (KM12 colon): > 10 µM | TGI (LOX IMVI melanoma): > 10 µM | TGI (M14 melanoma): > 10 µM | TGI (MALME-3M melanoma): > 10 µM | TGI (MCF7 breast): > 10 µM | TGI (MDA-MB-231 breast): > 10 µM | TGI (MDA-MB-435): > 10 µM | TGI (MDA-N): > 10 µM | TGI (MOLT-4 leukemia): > 10 µM | TGI (NCI-H23 lung): > 10 µM | TGI (NCI-H460 lung): > 10 µM | TGI (NCI-H522 lung): > 10 µM | TGI (NCI/ADR-RES ovarian): > 10 µM | TGI (OVCAR-3 ovarian): > 10 µM | TGI (OVCAR-4 ovarian): > 10 µM | TGI (OVCAR-5 ovarian): > 10 µM | TGI (OVCAR-8 ovarian): > 10 µM | TGI (SF-268 CNS): > 10 µM | TGI (SF-295 CNS): > 10 µM | TGI (SF-539 CNS): > 10 µM | TGI (SK-MEL-28 melanoma): > 10 µM | TGI (SK-MEL-5 melanoma): > 10 µM | TGI (SK-OV-3 ovarian): > 10 µM | TGI (SN12C renal): > 10 µM | TGI (SNB-19 CNS): > 10 µM | TGI (SNB-75 CNS): > 10 µM | TGI (SR leukemia): > 10 µM | TGI (SW-620 colon): > 10 µM | TGI (T-47D breast): > 10 µM | TGI (TK-10 renal): > 10 µM | TGI (U251 CNS): > 10 µM | TGI (UACC-257 melanoma): > 10 µM | TGI (UACC-62 melanoma): 8.65 µM | TGI (UO-31 renal): > 10 µM
